Assay results reported in patent US8404679B2, “Pyrrolidine derivatives as NK2 receptor antagonists” (Hoffmann-La Roche Inc., priority 2008, dated 2013).

target: T1, human NK2 receptor (Homo sapiens, UniProt P21452); experiment: [3H]SR48968 competition binding assay; conditions: [3H]SR48968 displacement, membranes of CHO cells stably expressing recombinant human NK2 receptor; Ki from IC50 by Cheng-Prussoff
T1 construct: purchased Perkin Elmer biosignal Inc. 6110510
T1 sequence (P21452 1-398): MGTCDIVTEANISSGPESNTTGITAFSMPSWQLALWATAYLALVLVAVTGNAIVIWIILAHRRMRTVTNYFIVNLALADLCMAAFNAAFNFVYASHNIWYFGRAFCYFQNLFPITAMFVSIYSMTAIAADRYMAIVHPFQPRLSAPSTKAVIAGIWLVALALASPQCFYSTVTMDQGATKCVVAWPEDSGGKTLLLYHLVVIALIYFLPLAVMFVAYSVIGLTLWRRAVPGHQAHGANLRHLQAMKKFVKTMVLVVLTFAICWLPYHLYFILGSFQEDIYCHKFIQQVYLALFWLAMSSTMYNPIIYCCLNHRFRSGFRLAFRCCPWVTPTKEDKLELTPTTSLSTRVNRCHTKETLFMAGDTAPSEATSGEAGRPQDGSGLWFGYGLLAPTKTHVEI
Outline: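 Membranes from CHO cells stably expressing recombinant human NK2 were incubated 75 min at RT with [3H]SR48968 at its KD and 10 compound concentrations (0.0003–10 μM) in Tris-HCl pH 7.4, MnCl2, chymostatin, BSA. Filter-bound radioactivity was counted; Hill-fitted IC50 converted to Ki via Cheng-Prusoff.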

SMILES	Ki
COc1ccc(C(=O)N(C)[C@H]2CN(C(=O)C3CCN(C(C)C)CC3)C[C@@H]2c2ccc(Cl)cc2)cc1C(F)(F)F (racemic) [Example 104, N-[(3RS,4SR)-4-(4-Chloro-phenyl)-1-(1-isopropyl-piperidine-4-carbonyl)-pyrrolidin-3-yl]-4-methoxy-N-methyl-3-trifluoromethyl-benzamide]	4.1 nM
COc1ccc(C(=O)N(C)[C@H]2CN(C(=O)C3CCN(CC4CC4)CC3)C[C@@H]2c2ccc(Cl)cc2)cc1C(F)(F)F (racemic) [Example 105, N-[(3RS,4SR)-4-(4-Chloro-phenyl)-1-(1-cyclopropylmethyl-piperidine-4-carbonyl)-pyrrolidin-3-yl]-4-methoxy-N-methyl-3-trifluoromethyl-benzamide]	0.8 nM
CN(C(=O)c1ccc(Cl)cn1)[C@H]1CN(C(=O)C2CCN(C(=O)C3(C)CC3)CC2)C[C@@H]1c1ccc(Cl)c(Cl)c1 (racemic) [Example 108, 5-Chloro-pyridine-2-carboxylic acid {(3RS,4SR)-4-(3,4-dichloro-phenyl)-1-[1-(1-methyl-cyclopropanecarbonyl)-piperidine-4-carbonyl]-pyrrolidin-3-yl}-methyl-amide]	2.6 nM
CN(C(=O)c1ccc(F)c(C#N)c1)[C@H]1CN(C(=O)C2CCN(C(=O)C3(C)CC3)CC2)C[C@@H]1c1ccc(Cl)c(Cl)c1 (racemic) [Example 109, 3-Cyano-N-{(3RS,4SR)-4-(3,4-dichloro-phenyl)-1-[1-(1-methyl-cyclopropanecarbonyl)-piperidine-4-carbonyl]-pyrrolidin-3-yl}-4-fluoro-N-methyl-benzamide]	0.8 nM
COc1ccc(C(=O)N(C)[C@H]2CN(C(=O)C3CCN(CCC(F)(F)F)CC3)C[C@@H]2c2ccc(Cl)cc2)cc1C(F)(F)F (racemic) [Example 110, N-{(3RS,4SR)-4-(4-Chloro-phenyl)-1-[1-(3,3,3-trifluoro-propyl)-piperidine-4-carbonyl]-pyrrolidin-3-yl}-4-methoxy-N-methyl-3-trifluoromethyl-benzamide]	0.8 nM
COc1ccc(C(=O)N(C)[C@H]2CN(C(=O)C3CCN(CCC(C)(C)C)CC3)C[C@@H]2c2ccc(Cl)cc2)cc1C(F)(F)F (racemic) [Example 111, N-{(3RS,4SR)-4-(4-Chloro-phenyl)-1-[1-(3,3-dimethyl-butyl)-piperidine-4-carbonyl]-pyrrolidin-3-yl}-4-methoxy-N-methyl-3-trifluoromethyl-benzamide]	0.7 nM
CN(C(=O)CC1CCCC1)[C@H]1CN(C(=O)C2CCN(C(=O)C3(C)CC3)CC2)C[C@@H]1c1ccc(Cl)c(Cl)c1 (racemic) [Example 113, 2-Cyclopentyl-N-{(3RS,4SR)-4-(3,4-dichloro-phenyl)-1-[1-(1-methyl-cyclopropanecarbonyl)-piperidine-4-carbonyl]-pyrrolidin-3-yl}-N-methyl-acetamide]	2.9 nM
CN(C(=O)CCC1CC1)[C@H]1CN(C(=O)C2CCN(C(=O)C3(C)CC3)CC2)C[C@@H]1c1ccc(Cl)c(Cl)c1 (racemic) [Example 114, 3-Cyclopropyl-N-{(3RS,4SR)-4-(3,4-dichloro-phenyl)-1-[1-(1-methyl-cyclopropanecarbonyl)-piperidine-4-carbonyl]-pyrrolidin-3-yl}-N-methyl-propionamide]	17.2 nM
CN(C(=O)CC(C)(C)C)[C@H]1CN(C(=O)C2CCN(C(=O)C3(C)CC3)CC2)C[C@@H]1c1ccc(Cl)c(Cl)c1 (racemic) [Example 115, N-{(3RS,4SR)-4-(3,4-Dichloro-phenyl)-1-[1-(1-methyl-cyclopropanecarbonyl)-piperidine-4-carbonyl]-pyrrolidin-3-yl}-3,3,N-trimethyl-butyramide]	23 nM
CC(C)C(C(=O)N(C)[C@H]1CN(C(=O)C2CCN(C(=O)C3(C)CC3)CC2)C[C@@H]1c1ccc(Cl)c(Cl)c1)c1ccc(F)cc1 (mixture of isomers) [Example 116, N-{(3RS,4SR)-4-(3,4-Dichloro-phenyl)-1-[1-(1-methyl-cyclopropanecarbonyl)-piperidine-4-carbonyl]-pyrrolidin-3-yl}-2-(4-fluoro-phenyl)-3,N-dimethyl-butyramide]	49.7 nM
COc1ccc(C(=O)N(C)[C@H]2CN(C(=O)C3CCN(CC(C)(C)C)CC3)C[C@@H]2c2ccc(Cl)cc2)cc1C(F)(F)F (racemic) [Example 120, N-{(3RS,4SR)-4-(4-Chloro-phenyl)-1-[1-(2,2-dimethyl-propyl)-piperidine-4-carbonyl]-pyrrolidin-3-yl}-4-methoxy-N-methyl-3-trifluoromethyl-benzamide]	0.8 nM
CCN1CCC(C(=O)N2C[C@H](c3ccc(Cl)cc3)[C@@H](N(C)C(=O)c3ccc(OC)c(C(F)(F)F)c3)C2)CC1 (racemic) [Example 121, N-[(3RS,4SR)-4-(4-Chloro-phenyl)-1-(1-ethyl-piperidine-4-carbonyl)-pyrrolidin-3-yl]-4-methoxy-N-methyl-3-trifluoromethyl-benzamide]	5.1 nM
COc1ccc(C(=O)N[C@H]2CN(C(=O)C3CCN(C(=O)C4(C)CC4)CC3)C[C@@H]2c2ccc(Cl)cc2C)cc1C(F)(F)F (racemic) [Example 122, N-{(3RS,4SR)-4-(4-Chloro-2-methyl-phenyl)-1-[1-(1-methyl-cyclopropanecarbonyl)-piperidine-4-carbonyl]-pyrrolidin-3-yl}-4-methoxy-3-trifluoromethyl-benzamide]	82 nM
CN(C(=O)CC1CCOCC1)[C@H]1CN(C(=O)C2CCN(C(=O)C3(C)CC3)CC2)C[C@@H]1c1ccc(Cl)c(Cl)c1 (racemic) [Example 124, N-{(3RS,4SR)-4-(3,4-Dichloro-phenyl)-1-[1-(1-methyl-cyclopropanecarbonyl)-piperidine-4-carbonyl]-pyrrolidin-3-yl}-N-methyl-2-(tetrahydro-pyran-4-yl)-acetamide]	13 nM
CN(C(=O)C(C)(C)c1ccc(F)cc1)[C@H]1CN(C(=O)C2CCN(C(=O)C3(C)CC3)CC2)C[C@@H]1c1ccc(Cl)c(Cl)c1 (racemic) [Example 125, N-{(3RS,4SR)-4-(3,4-Dichloro-phenyl)-1-[1-(1-methyl-cyclopropanecarbonyl)-piperidine-4-carbonyl]-pyrrolidin-3-yl}-2-(4-fluoro-phenyl)-N-methyl-isobutyramide]	67.9 nM
COc1ccc(C(=O)N(C)[C@H]2CN(C(=O)C3CCN(CCCSC)CC3)C[C@@H]2c2ccc(Cl)cc2)cc1C(F)(F)F (racemic) [Example 126, N-{(3RS,4SR)-4-(4-Chloro-phenyl)-1-[1-(3-methylsulfanyl-propyl)-piperidine-4-carbonyl]-pyrrolidin-3-yl}-4-methoxy-N-methyl-3-trifluoromethyl-benzamide]	0.9 nM
COC1CCC(C(=O)N2C[C@H](c3ccc(Cl)c(Cl)c3)[C@@H](N(C)C(=O)Cc3ccc(F)cc3)C2)CC1 (mixture of isomers) [Example 127, N-[(3RS,4SR)-4-(3,4-Dichloro-phenyl)-1-(4-methoxy-cyclohexanecarbonyl)-pyrrolidin-3-yl]-2-(4-fluoro-phenyl)-N-methyl-acetamide]	35 nM
COc1ccc(C(=O)N(C)[C@H]2CN(C(=O)C3CCN(CCCS(C)(=O)=O)CC3)C[C@@H]2c2ccc(Cl)cc2)cc1C(F)(F)F (racemic) [Example 131, N-{(3RS,4SR)-4-(4-Chloro-phenyl)-1-[1-(3-methanesulfonyl-propyl)-piperidine-4-carbonyl]-pyrrolidin-3-yl}-4-methoxy-N-methyl-3-trifluoromethyl-benzamide]	0.1 nM
COc1ccc(C(=O)N(C)[C@H]2CN(C(=O)C3CCN(C(=O)OC(C)(C)C)CC3)C[C@@H]2c2ccc(Cl)c(Cl)c2)cc1C(F)(F)F (racemic) [Example 132, 4-{(3SR,4RS)-3-(3,4-Dichloro-phenyl)-4-[(4-methoxy-3-trifluoromethyl-benzoyl)-methyl-amino]-pyrrolidine-1-carbonyl}-piperidine-1-carboxylic acid tert-butyl ester]	1.3 nM
COc1ccc(C(=O)N(C)[C@H]2CN(C(=O)C3CCNCC3)C[C@@H]2c2ccc(Cl)c(Cl)c2)cc1C(F)(F)F (racemic) [Example 133, N-[(3RS,4SR)-4-(3,4-Dichloro-phenyl)-1-(piperidine-4-carbonyl)-pyrrolidin-3-yl]-4-methoxy-N-methyl-3-trifluoromethyl-benzamide]	0.2 nM
CN(C(=O)Cc1ccc(F)cc1)[C@H]1CN(C(=O)c2ccc(N3CCOCC3)cc2)C[C@@H]1c1ccc(Cl)c(Cl)c1 (racemic) [Example 134, N-[(3RS,4SR)-4-(3,4-Dichloro-phenyl)-1-(4-morpholin-4-yl-benzoyl)-pyrrolidin-3-yl]-2-(4-fluoro-phenyl)-N-methyl-acetamide]	51.9 nM
CN(C(=O)Cc1ccc(F)cc1)[C@H]1CN(C(=O)c2ccc(N3CCOCC3)nc2)C[C@@H]1c1ccc(Cl)c(Cl)c1 (racemic) [Example 135, N-[(3RS,4SR)-4-(3,4-Dichloro-phenyl)-1-(6-morpholin-4-yl-pyridine-3-carbonyl)-pyrrolidin-3-yl]-2-(4-fluoro-phenyl)-N-methyl-acetamide]	85.4 nM
COc1ccc(C(=O)N(C)[C@H]2CN(C(=O)C3CCN(CC4CC4)CC3)C[C@@H]2c2ccc(Cl)c(Cl)c2)cc1C(F)(F)F (racemic) [Example 138, N-[(3RS,4SR)-1-(1-Cyclopropylmethyl-piperidine-4-carbonyl)-4-(3,4-dichloro-phenyl)-pyrrolidin-3-yl]-4-methoxy-N-methyl-3-trifluoromethyl-benzamide]	0.5 nM
